# According to patent publication US8202902B2, “Bivalent SMAC mimetics and the uses thereof” (The Regents of the University of Michigan, priority 2006, dated 2012):
# pIC50: −log10 of the molar value.
# Experiments:
# [1] = test system: XIAP stably transfected Jurkat leukemia cell line (XIAP-JK) and vector control cell line (VEC-JK); experiment: XIAP-overexpressing Jurkat cells, Smac mimetics with TNFα; type: cell-based
# Source text: The effect of XIAP overexpression in cancer cells on TNFα-dependent apoptosis induction by Smac mimetics was investigated. Since stable transfection of XIAP in those sensitive cancer cell lines was unsuccessful, the previously well-characterized XIAP stably transfected Jurkat leukemia cell line (XIAP-JK) and its vector control cell line (VEC-JK) were employed (Wilkinson et al., Mol. Cell. Biol. 24:7003 (2004)). The VEC-JK cell line with low expression of XIAP was sensitive to SM-122 or SM-164 in combination with TNFα (FIG. 43).
# [2] = test system: MDA-MB-231 (2LMP) human breast cancer cells; experiment: Cell growth inhibition by cisplatin or mitoxantrone with SH-164; type: cell-based; conditions: 100 nM
# Protocol: (§1) Cells were seeded in 96-well flat bottom cell culture plates at a density of 3000 cells/well with a tested compound and incubated at 37° C. in an atmosphere of 95% air and 5% CO2 for 4 days. The rate of cell growth inhibition after treatment with different concentrations of the compound was determined using a WST-8 kit (2-(2-methoxy-4-nitrophenyl)-3-(4-nitrophenyl)-5-(2, 4 disulfophenyl)-2H-tetrazolium monosodium salt; Dojindo Molecular Technologies, Inc., Gaithersburg, Md.). WST-8 was added at a final concentration of 10% to each well, and then the plates were incubated at 37° C. for 2-3 hrs. The absorbance of the samples was measured at 450 nm using a ULTRA Tecan Reader (Molecular Device).
# [3] = test system: HCT116 and MDA-MB-453 cell lines; experiment: Activity with exogenous TNFα in resistant cancer cell lines; type: cell-based
# SK-OV-3 = experiment: Cell growth inhibition, WST assay, SK-OV-3; type: cell-based; conditions: Homo sapiens
# Protocol: as §1
# [4] = test system: cIAP-1 in cancer cell lines; experiment: Induction of cIAP-1 degradation in cancer cells; type: cell-based
# MDA-MB-231 cells = experiment: Trypan blue cell viability assay, MDA-MB-231; type: cell-based, human; conditions: 100 nM, 2 days
# Protocol: (§2) 0.3×10^6 cells were seeded in 6 well plates and incubated at 37° C. in an atmosphere of 95% air and 5% CO2 without or with tested compound for 2 days. A 1:1 dilution of 0.4% Trypan blue (Invitrogen Corporation) was used to determine cell viability.
# [5] = test system: MDA-MB-231 xenograft model; experiment: Inhibition of tumor growth in the MDA-MB-231 xenograft model; type: in vivo, mice
# Protocol: SM-164 was evaluated for its ability to inhibit tumor growth. […] Treatment with SM-164 at 5 mg/kg reduces the tumor volume from 147±54 mm^3 at the beginning of the treatment (day 25) to 54±32 mm^3 at the end of the treatment (day 36), a reduction of 65%. The strong antitumor activity by SM-164 is long lasting and not transient.
# [6] = test system: MALME-3M melanoma cell line; experiment: Apoptosis assay (Annexin V/P.I.), MALME-3M; type: cell-based; conditions: 1 nM for 12 h
# Protocol: Analysis of apoptosis was performed using an apoptosis detection kit (BioVision Research Products, Mountain View, Calif.) according to the manufacturer's protocol. Briefly, cells were treated with Smac mimetics for 12 hours, harvested and washed with ice-cold PBS. Cells were stained with Annexin V-FITC and Propidium iodide (P.I.) for 15 minutes at room temperature in the dark and immediately analyzed by FACS calibur flow cytometer (Becton Dickinson, Erembodegem, Belgium). Cells that were stained Annexin V (+) and P.I. (−) were considered early-stage apoptotic cells. Cells that were stained annexin V (+) and P.I. (+) were considered late-stage apoptotic cells and cells that were stained annexin V (−) and P.I. (+) were considered necrotic cells (FIG. 6).
# (§3) Treatment with SM-164 at 1 nM for 12 h induced 32%, 33%, and 37% of the MDA-MB-231, SK-OV-3 and MALME-3M cells to undergo apoptosis, respectively (FIGS. 12-14).
# MAMLE-3M cells = experiment: Trypan blue cell viability assay, MAMLE-3M; type: cell-based; conditions: 100 nM, 2 days
# Protocol: as §2
# OVCAR-4 cells = experiment: Trypan blue cell viability assay, OVCAR-4; type: cell-based; conditions: 100 nM, 2 days
# Protocol: as §2
# [7] = biological target: T1, XIAP protein containing both BIR2 and BIR3 domains (Homo sapiens, UniProt P98170); experiment: Fluorescence-polarization based binding assay, XIAP BIR2-BIR3
# T1 construct: XIAP protein containing both BIR2 and BIR3 domains; made in house
# T1 sequence (P98170 120-356 limits assumed): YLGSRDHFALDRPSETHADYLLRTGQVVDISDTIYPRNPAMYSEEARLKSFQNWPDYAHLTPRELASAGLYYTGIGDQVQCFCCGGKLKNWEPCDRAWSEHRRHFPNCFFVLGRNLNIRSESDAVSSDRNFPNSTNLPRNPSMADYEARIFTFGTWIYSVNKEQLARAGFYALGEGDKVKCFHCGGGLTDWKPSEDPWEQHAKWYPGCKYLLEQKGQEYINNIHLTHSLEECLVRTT
# [8] = biological target: T2, Recombinant XIAP containing linker-BIR2-BIR3 (residues 120-356) (Homo sapiens, UniProt P98170); experiment: Cell-free functional assay: antagonism of XIAP inhibition of caspase-3/-7; type: biochemical
# T2 construct: Recombinant XIAP containing linker-BIR2-BIR3 (residues 120-356)
# T2 sequence (P98170 120-356): as the sequence (P98170 120-356 limits assumed) above
# [9] = test system: MAMEL-3M melanoma cell line; experiment: Cell growth inhibition, WST-8 assay, MAMEL-3M; type: cell-based; conditions: 96 h, 4 days
# Protocol: as §1
# [10] = test system: Sensitive cancer cell lines; experiment: Secreted TNFα in cell culture medium (ELISA), sensitive lines; type: cell-based
# Protocol: (§4) To explore whether the resistance of cancer cells to Smac mimetics is due to the lack of secreted TNFα, the levels of secreted TNFα were examined. Secreted TNFα concentrations were determined in 200 μl of cell culture medium using the Quantikine HS Human TNFα ELISA kit (R&D Systems). The assay was performed according to the manufacturer's instructions.
# [11] = test system: sensitive cancer cell lines (MDA-MB-231, MALME-3M, SK-OV-3); experiment: XIAP knockdown by siRNA with exogenous TNFα, cell death; type: cell-based
# Protocol: To investigate the role of XIAP in apoptosis induction by Smac mimetics, XIAP was knocked down in sensitive cancer cell lines. Because XIAP knockdown attenuated the production and secretion of TNFα (FIG. 34) (Gaither et al., Cancer Res. 67:11493 (2007)), exogenous TNFα was added in these XIAP knockdown experiments. […] For example, while SM-122 at 100 nM in combination with TNFα killed 25% of the MDA-MB-231 cells when control siRNA was used, the same combination killed 75% of the cells when XIAP was knocked down.
# This is consistent with binding and functional data that indicates SM-164 binds to XIAP with a high affinity and is a potent antagonist of XIAP.
# [12] = test system: resistant cancer cell lines (MDA-MB-453 breast, DU-145 prostate, MDA-MB-435 melanoma); experiment: Secreted TNFα in cell culture medium (ELISA), resistant lines; type: cell-based
# Protocol: as §4
# [13] = test system: MDA-MB-231, SK-OV-3 and MALME-3M cell lines; experiment: Western blot analysis of caspase processing and PARP cleavage; type: cell-based
# Protocol: as §3
smiles,measurement,setting,value
CN[C@@H](C)C(=O)N[C@H]1CCCC[C@H]2CC[C@@H](C(=O)N[C@@H](c3ccccc3)c3cn(CCCCc4ccc(CCCCn5cc([C@@H](NC(=O)[C@@H]6CC[C@@H]7CCCC[C@H](NC(=O)[C@H](C)NC)C(=O)N76)c6ccccc6)nn5)cc4)nn3)N2C1=O [SH-164],sensitivity in combination with TNFα,[1]; VEC-JK cell line,sensitive
same,sensitivity in combination with TNFα,[1]; XIAP-JK cell line,much less effective than in the VEC-JK cell line
same,sensitization to growth inhibition by cisplatin and mitoxantrone,[2],sensitized the cells to growth inhibition by both agents
same,effect of exogenous TNFα on activity,[3],significantly enhanced
same,IC50,SK-OV-3,< 10 nM
same,cIAP-1 level,"[4]; 1 nM for 60 min, sensitive cancer cell lines",reduced cIAP-1 markedly
same,cIAP-1 degradation,"[4]; 100 nM, SK-OV-3 cell line (FIG. 28)",rapid cIAP-1 degradation
same,cIAP-1 level / degradation,"[4]; 10-100 nM, sensitive cancer cell lines",undetectable levels
same,levels of XIAP protein,"[4]; MDA-MB-231 and SK-OV-3, 12-24 h time points",reduced
same,cIAP-1 degradation,[4]; resistant cancer cell lines,rapid cIAP-1 degradation
same,cell death,MDA-MB-231 cells,at least 70%
same,tumor growth during the treatment,[5]; 1 mg/kg,completely inhibits tumor growth
same,tumor volume at the beginning of the treatment,"[5]; 5 mg/kg, day 25",147±54 mm^3
same,reduction of tumor volume,"[5]; 5 mg/kg, day 25 to day 36",65%
same,tumor volume at the end of the treatment,"[5]; 5 mg/kg, day 36",54±32 mm^3
same,efficacy compared with TXT,"[5]; 5 mg/kg, end of treatment (p<0.01) or control tumor 750 mm^3 (p<0.02)",statistically more effective than TXT
same,weight loss or other sign of toxicity,[5]; 1 or 5 mg/kg,no significant weight loss or other sign of toxicity
same,cells undergoing apoptosis,[6],37%
same,cell death,MAMLE-3M cells,at least 70%
same,cell death,OVCAR-4 cells,at least 70%
same,more potent than monovalent SM-122 for binding to XIAP,[7],300 times
same,more potent than SM-122 in antagonizing XIAP and promoting caspase activity,[8],60 times
same,pIC50,[9],8.85
same,secretion of TNFα,[10],further enhanced
same,cell death induction,"[11]; 3 and 10 nM, with or without TNFα",effectively induced cell death
same,sensitization by knockdown of XIAP,[11]; presence of exogenous TNFα,only modestly sensitized
same,induction of TNFα,[12],failed to induce detectable levels of TNFα
same,"induction of cell death, caspase processing and PARP cleavage, comparison",[13]; SM-164 at 1 nM,"as effective as SM-122 at 1,000 nM"
same,"levels of pro-caspase-3, -8 and -9 (cleaved PARP increased)",[13]; concentration as low as 1 nM,markedly decreased
